According to patent US20080312164A1 (priority 2006, published 2008):
Where two headings read alike, the source gives them in different places. Marks after values point to notes of the source that are not given here.

How the values were obtained:
[1] = tested on: MCF7 cells; assay: Calcein AM cytotoxicity assay, MCF7; assay type: cell-based; conditions: Homo sapiens; MCF7, Calcein AM, 72 h; read-out: IC50
Description: (§1) Five serial 1:2 dilutions were made with anhydrous DMSO at 100× the final concentration used in the assay.

[2] = tested on: NCI-H460 cells; assay: Cell Titer-Glo cytotoxicity assay, NCI-H460; assay type: cell-based, human; conditions: Homo sapiens; NCI-H460, Cell Titer-Glo, 72 h; read-out: IC50
Description: as §1

[3] = tested on: Du145 cells; assay: Calcein AM cytotoxicity assay, Du145; assay type: cell-based; conditions: Homo sapiens, DU-145; Du145, Calcein AM, 72 h; read-out: IC50
Description: as §1

[4] = tested on: SK-OV-3 cells; assay: Cell Titer-Glo cytotoxicity assay, SK-OV-3; assay type: cell-based; conditions: Homo sapiens; SK-OV-3, Cell Titer-Glo, 72 h; read-out: IC50
Description: as §1

[5] = tested on: human cancer cell lines; assay: Cytotoxicity across the panel of human cancer cell lines (average, high-throughput assays); assay type: cell-based; conditions: for further fold increase in potency from multiple phenyl rings: average IC50 compared with single-ring 23 and 38
Description: as §1

[6] = tested on: Hep3B cells; assay: Calcein AM cytotoxicity assay, Hep3B; assay type: cell-based; conditions: Homo sapiens, Calcein AM, 72 h, read-out: IC50
Description: as §1

[7] = tested on: NCI-H460 cells; assay: Calcein AM cytotoxicity assay, NCI-H460; assay type: cell-based; conditions: Homo sapiens; NCI-H460, Calcein AM, 72 h; read-out: IC50
Description: as §1

[8] = tested on: NmuMG Cell Line; assay: Cytotoxicity in NmuMG cell line, summary table (assay not stated); assay type: cell-based; conditions: Mus musculus, assay not stated (mostly Cell Titer-Glo values; Calcein AM values for 20, 24, 39)
Description: as §1

[9] = tested on: NmuMG mouse mammary normal epithelial cells; assay: Cell Titer-Glo cytotoxicity assay, NmuMG; assay type: cell-based; conditions: Mus musculus, Epithelial cell; NmuMG, Cell Titer-Glo, 72 h; read-out: IC50
Description: as §1

[10] = tested on: NmuMG mouse mammary normal epithelial cells; assay: Calcein AM cytotoxicity assay, NmuMG; assay type: cell-based; conditions: Epithelial cell, NmuMG, Calcein AM, 72 h, read-out: IC50
Description: as §1

[11] = tested on: SF-268 cells; assay: Calcein AM cytotoxicity assay, SF-268; assay type: cell-based; conditions: Homo sapiens; SF-268, Calcein AM, 72 h; read-out: IC50
Description: as §1

[12] = tested on: HT-29 cells; assay: MTT cytotoxicity assay, HT-29; assay type: cell-based; conditions: Homo sapiens; HT-29, MTT, 24 h; read-out: IC50
Description: The IC50 value for each library member represents at least twelve replicates of dose-response experiments conducted over five concentrations. […] In this assay, live cells were distinguished by the intracellular enzymatic activity that converts the cell-permeable molecule MTT to strongly colored formazan crystals, which are retained within live cells and absorb light at 570 nm.
MTT Cytotoxicity Assay. HT-29 cell lines were maintained in RPMI medium 1640 supplemented with 10% (wt/vol) FBS and 1% penicillin-streptomycin (PS) (100 units/mL and 100 μg/mL). Cells were harvested by trypsinization using 0.25% trypsin and 0.1% EDTA and plated at a density of 2,000-5,000 cells per well of each 96-well microtiter plate. Cells were grown for 24 h at 37° C., with 5% CO2/95% air in a humidified incubator to allow cell attachment to occur before compound addition. Library members were stored at −20° C. under desiccating conditions before the assay. Library member stocks (1000×) were prepared in falcon tubes (BD Biosciences). Five dilutions were made with DMSO at 1000× the final concentration used in the assay. The 1000× stocks (3 μL) were diluted with complete culture medium (3 mL). Each plate contained twelve replicates of cells treated with 0.1% DMSO in complete cell culture medium that served as an individual negative control. Library member stocks (1×, 200 μL) were added to aspirated cells and replicated twelve times on each plate. Cells were incubated with the library members for 24 h before optical density reading. Test plates were removed from the incubator and washed once in sterile PBS to remove serum containing library members. Freshly-made 10×MTT solution in sterile PBS (5 mg/mL) was diluted 1:10 in serum-free culture medium and was sterilized using a 0.2 μm filter. Diluted MTT solution (1×, 50 μL) was added to each well and the plates were incubated in the dark for 2 h. Test plates were centrifuged at 1800×g for 5 min at 4° C. using a Beckman GPR centrifuge. MTT solution was removed by aspiration and 100 μL DMSO was added to each well to lyse cells and solubilize formazan crystals. Test plates were incubated in the dark at room temperature for 10 min. Plates were read for optical density at 570 nm.
IC50 Calculations. For each library member, at least three dose-response experiments were conducted on separate plates. […] To calculate IC50, percent inhibitions were plotted as a function of log[concentration] and then fit to a four-parameter logistic model that allowed for a variable Hill slope by using XLFIT 4.1 (ID Business Solutions, Emeryville, Calif.).

[13] = tested on: HCT-116 cells; assay: Cell Titer-Glo cytotoxicity assay, HCT-116; assay type: cell-based; conditions: Homo sapiens; HCT-116, Cell Titer-Glo, 72 h; read-out: IC50
Description: as §1

[14] = tested on: Du145 cells; assay: Cell Titer-Glo cytotoxicity assay, Du145; assay type: cell-based; conditions: Homo sapiens, DU-145; Du145, Cell Titer-Glo, 72 h; read-out: IC50
Description: as §1

[15] = tested on: MCF7 cells; assay: Cell Titer-Glo cytotoxicity assay, MCF7; assay type: cell-based, human; conditions: Homo sapiens; MCF7, Cell Titer-Glo, 72 h; read-out: IC50
Description: as §1

[16] = tested on: NCI/ADR RES cells; assay: Calcein AM cytotoxicity assay, NCI/ADR-RES; assay type: cell-based; conditions: Homo sapiens, Calcein AM, 72 h, read-out: IC50
Description: as §1

[17] = tested on: NCI/ADR RES cells; assay: Cell Titer-Glo cytotoxicity assay, NCI/ADR-RES; assay type: cell-based, human; conditions: Homo sapiens; NCI/ADR-RES, Cell Titer-Glo, 72 h; read-out: IC50
Description: as §1

[18] = tested on: SK-OV-3 cells; assay: Calcein AM cytotoxicity assay, SK-OV-3; assay type: cell-based; conditions: Homo sapiens; SK-OV-3, Calcein AM, 72 h; read-out: IC50
Description: as §1

[19] = tested on: Hep3B cells; assay: Cell Titer-Glo cytotoxicity assay, Hep3B; assay type: cell-based; conditions: Homo sapiens, Cell Titer-Glo, 72 h, read-out: IC50
Description: as §1

[20] = tested on: SF-268 cells; assay: Cell Titer-Glo cytotoxicity assay, SF-268; assay type: cell-based; conditions: Homo sapiens; SF-268, Cell Titer-Glo, 72 h; read-out: IC50
Description: as §1

[21] = tested on: HCT-116 cells; assay: Calcein AM cytotoxicity assay, HCT-116; assay type: cell-based; conditions: Homo sapiens; HCT-116, Calcein AM, 72 h; read-out: IC50
Description: as §1

[22] = average across eight human cancer cell lines, MTT (HT-29) values excluded, read-out: Cancerous Average IC50 / Average IC50 in Cancer Cell Lines

Compound | IC50 [1] [µM] | IC50 [2] [µM] | IC50 [3] [µM] | IC50 [4] [µM] | IC50 [5, 22] [µM] | IC50 [6] [µM] | IC50 [7] [µM] | IC50 [9] [µM] | IC50 [10] [µM] | IC50 [11] [µM] | IC50 [12] [µM] | IC50 [13] [µM] | IC50 [14] [µM] | IC50 [15] [µM] | IC50 [16] [µM] | IC50 [17] [µM] | IC50 [18] [µM] | IC50 [19] [µM] | IC50 [20] [µM] | IC50 [21] [µM] | further results
CC(C)CN=C=S [Compound 15, 1-isothiocyanato-2-methylpropane] | > 50 | > 50 | > 50 | > 50 | > 50 | 32.8 | > 50 | > 200 | > 200 | > 50 | > 50 | > 50 | > 50 | > 50 | > 50 | > 50 | > 50 | > 30 | > 50 | 27.6 | IC50 ([5]; Homo sapiens, Calcein AM and CellTiter Glo, all cell lines (FIG. 3 legend), read-out: IC50, all cell lines): > 50 µM; Cancerous Average IC50 / Average IC50 in Cancer Cell Lines ([5]; average across eight human cancer cell lines, MTT (HT-29) values excluded): >50.00^b μM; IC50 [8]: > 200 µM
S=C=NCc1cccc2ccccc12 [Compound 30, 1-(isothiocyanatomethyl)naphthalene] | < 3.13 | 13.3 | 8.31 | 4.89 | 9.16 | 15.2 | 12.6 | 21.4 | 13.8 | 2 | > 50 | 4.55 | 16.8 | 2.27 | 8.93 | 9.71 | 3.22 | 19.8 | 3.39 | > 20 | 
S=C=N[C@H]1CCCc2ccccc21 [Compound 31, (S)-1-isothiocyanato-1,2,3,4-tetrahydronaphthalene] | 14.5 | 31.6 | 12.4 | 12.7 | 17.2 | 13.1 | 25.4 | 15.4 | 18.6 | 8.51 | > 50 | 12.2 | 17.4 | 14.4 | 25.1 | 30.9 | > 30 | 20.1 ± 0.53 | 10.5 | 33 | 
S=C=NCc1cccc(-c2ccccc2)c1 [Compound 34, 1-(isothiocyanatomethyl)-3-phenylbenzene] | 2.52 | 5.29 | 7.11 | 3.83 | 3.27 | 6.9 | 3.53 | 3.06 | 5.95 | 3.95 | 28.8 | 3.33 | 3.87 | 2.13 | 1.47 | 2.23 | 4.92 | 2.11 | 3.39 | 2.93 | selectivity for cancer cells over NmuMG cells ([5]; IC50 in NmuMG versus average IC50 in cancer cell lines): non-selective; further fold increase in potency from multiple phenyl rings [5]: ~2 fold
S=C=NCc1ccc(-c2ccccc2)cc1 [Compound 35, 1-(isothiocyanatomethyl)-4-phenylbenzene] | 2.91 | 15 | 5.49 | 4.65 | 7.89 | 4.33 | 10.5 | 65.7 | < 12.5 | 6.26 | > 50 | 4.83 | 11 | 6.72 | 6.73 | 12.1 | < 3.13 | 4.51 | 4.4 | 7.54 | further fold increase in potency from multiple phenyl rings [5]: ~2 fold
S=C=NCc1ccc(Oc2ccccc2)cc1 [Compound 36, 1-(isothiocyanatomethyl)-4-phenoxybenzene] | 6.34 | 9.12 | 12.2 | 3.99 | 4.84 | 7.17 | 4.47 | 187 | < 12.5 | 6.17 | 37.6 | 3.55 | 8.24 | 6.16 | 3.93 | 3.3 | 3.93 | 3.95 | 5.06 | 4.19 | further fold increase in potency from multiple phenyl rings [5]: ~2 fold
S=C=NCCc1ccccc1 [Compound 38, 1-(2-isothiocyanatoethyl)benzene] | 23.7 | 13.7 | 43.1 | 13.5 | 11.5 | 46.2 | 12.1 | 17.7 | < 12.5 | 8.66 | 33.2 | 10.3 | 10.9 | 13.1 | 10.5 | 12.1 | 16.7 | 11.1 | 7.2 | 12.7 | 
S=C=NCC(c1ccccc1)c1ccccc1 [Compound 40, 2-isothiocyanato-1,1-diphenylethane] | 3.62 | 5.64 | 3.51 | 4.52 | 4.11 | 3.58 | 9.91 | 3.62 | 5.81 | 3.49 | 22.9 | 1.22 | 3.65 | 3.68 | 3.95 | 4.47 | 5.26 | 4.3 | 3.33 | 3.26 | further fold increase in potency from multiple phenyl rings [5]: ~2 fold
